Laboratory results: patent US4734420A, “Anti-hypertensive agents” (priority 1980, dated 1988)

Assays:
ACE [1] = settings: statement of belief; cited from earlier work
ACE [2] = settings: oral, most patients; cited from earlier work
Human urinary ACE = Human urinary ACE (Homo sapiens, UniProt P12821); assay: biochemical; settings: read-out: I50 value
Excerpt: The role of ACE in the pathogenesis of hypertension has prompted a search for inhibitors of the enzyme that could act as antihypertensive drugs. See for example U.S. Pat. Nos. 3,891,616, 3,947,575, 4,052,511 and 4,053,651. […]. No. 4,046,889 to Ondetti et al., issued Sept. 6, 1977, and in scientific articles by Cushman, D. W. et al., Biochemistry 16, 5484 (1977), and by Ondetti, M. et al., Science 196, 441 (1977). […]. These factors include the source of enzyme, its purity, the substrate used and its concentration, and the composition of the assay buffer. All I50 data reported herein have been performed with the same assay system and same enzyme (human urinary ACE) and with an approximately 1/2 Km level of substrate and are therefore internally consistent. Discrepancies with data obtained by other workers may be observed. Indeed such discrepancies do exist in the literature, for unknown reasons. See, for example, the I50 values for BPP9a reported by Cushman, D. W., et al., Experientia 29, 1032 (1973) and by Dorer, F. E., et al., Biochim. Biophys. Acta 429, 220 (1976).
The inhibitory potency of N^α -[3-(L-α-glutamylthio)-2-D-methyl-propanoyl]-L-proline in vitro was measured in the following assay. […] The enzyme was assayed in 0.05M Hepes buffer, pH 8.0 containing 0.1M NaCl and 0.75M Na2 SO4. […]

Human urinary ACE, sequence (P12821 30-1232 limits assumed): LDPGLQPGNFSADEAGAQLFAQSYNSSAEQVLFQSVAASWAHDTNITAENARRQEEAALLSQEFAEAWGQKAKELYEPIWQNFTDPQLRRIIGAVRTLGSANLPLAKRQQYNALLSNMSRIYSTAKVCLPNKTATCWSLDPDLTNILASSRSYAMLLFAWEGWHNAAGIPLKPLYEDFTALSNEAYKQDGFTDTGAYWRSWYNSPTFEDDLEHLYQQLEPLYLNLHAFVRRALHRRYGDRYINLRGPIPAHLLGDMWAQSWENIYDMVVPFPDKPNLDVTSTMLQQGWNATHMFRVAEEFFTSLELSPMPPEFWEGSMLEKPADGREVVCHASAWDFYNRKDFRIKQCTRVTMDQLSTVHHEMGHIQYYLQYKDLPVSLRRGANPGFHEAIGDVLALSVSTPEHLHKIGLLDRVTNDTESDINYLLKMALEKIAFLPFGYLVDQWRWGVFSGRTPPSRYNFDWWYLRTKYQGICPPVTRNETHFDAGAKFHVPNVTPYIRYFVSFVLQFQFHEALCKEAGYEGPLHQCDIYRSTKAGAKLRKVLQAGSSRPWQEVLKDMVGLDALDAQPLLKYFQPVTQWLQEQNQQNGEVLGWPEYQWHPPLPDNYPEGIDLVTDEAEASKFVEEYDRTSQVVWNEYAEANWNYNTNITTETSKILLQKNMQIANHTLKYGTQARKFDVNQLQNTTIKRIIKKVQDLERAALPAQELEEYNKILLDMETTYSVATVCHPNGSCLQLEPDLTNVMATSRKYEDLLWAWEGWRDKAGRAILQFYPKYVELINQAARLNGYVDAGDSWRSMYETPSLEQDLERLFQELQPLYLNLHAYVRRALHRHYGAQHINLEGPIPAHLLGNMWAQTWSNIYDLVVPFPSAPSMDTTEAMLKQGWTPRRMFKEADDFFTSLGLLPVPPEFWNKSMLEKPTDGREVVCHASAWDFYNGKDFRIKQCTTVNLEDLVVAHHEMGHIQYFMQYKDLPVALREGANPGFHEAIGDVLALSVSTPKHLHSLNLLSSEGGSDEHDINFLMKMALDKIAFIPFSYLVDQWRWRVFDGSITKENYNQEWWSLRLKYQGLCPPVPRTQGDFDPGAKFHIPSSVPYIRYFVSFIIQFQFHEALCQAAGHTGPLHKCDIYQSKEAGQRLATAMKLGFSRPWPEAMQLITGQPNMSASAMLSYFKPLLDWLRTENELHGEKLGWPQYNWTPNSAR

Question: With C[C@H](CSSC[C@@H](C)C(=O)N1CCC[C@H]1C(=O)O)C(=O)N1CCC[C@H]1C(=O)O [disulfide] as the compound, how does the “inhibitory activity of disulfide (dimer of SQ14225)” value (ACE [1]) read?
Answer: Its value is “largely inactive as an inhibitor”.

Question: For C[C@H](CS)C(=O)N1CCCC1C(=O)O (stereo in doubt) [SQ14225, D-3-mercapto-2-methylpropanoyl-L-proline], which “stability in normal gastric and intestinal environments” value (ACE [2]) is on record?
Answer: The value was “sufficiently stable in the normal gastric and intestinal environments of most patients”.

Question: For C[C@H](CSC(=O)[C@@H](N)CCC(=O)O)C(=O)N1CCC[C@H]1C(=O)O [N^α -[3-(L-α-glutamylthio)-2-D-methyl-propanoyl]-L-proline], which IC50 (Human urinary ACE) is on record?
Answer: The IC50 was 2.1 nM.
